What was measured:
[1] = test system: Human immunodeficiency virus 1; experiment: Inhibition of HIV-1 replication by 50% (no effect at this concentration); assay type: functional, organism-based
[2] = Concentration which inhibits hepatitis B virus replication in the HepAD38 cell line.; assay type: functional; details: Homo sapiens
Human alphaherpesvirus 1 = experiment: Inhibition of HSV-1 replication by 50% (no effect at this concentration); assay type: functional, organism-based
[3] = test system: Vesicular stomatitis virus; experiment: Inhibition of Vesicular stomatis virus replication by 50% (no effect at this concentration); assay type: functional, organism-based
[4] = Inhibition of Woodchuck HBV replication by 50% (no effect at this concentration); assay type: functional, organism-based; details: Marmota monax
[5] = Reduction of viable cell numbers by 50% was evaluated by HepAD38 cellular assay; assay type: ADME, cell-based; details: human, HepAD38 cells; read-out: TC50 (the source's name)
[6] = Inhibition of Duck HBV replication by 50% (no effect at this concentration); assay type: functional, organism-based; details: Anas sp.
[7] = (§1) Inhibition of hepatitis B virus replication in the HepAD38 cell line.; assay type: functional, cell-based; details: Homo sapiens
Newcastle disease virus = experiment: Inhibition of Newcastles disease virus replication by 50% (no effect at this concentration); assay type: functional, organism-based; details: avian paramyxovirus 1
HepG2 [8] = experiment: as §1; assay type: functional, cell-based; details: Homo sapiens
HepG2 [9] = experiment: The concentration of compound which inhibits hepatitis B virus replication in the HepAD38 cell line.; details: Homo sapiens

| Structure (SMILES) | EC50 [1] [µM] | EC90 [2] [µM] | EC50 (Human alphaherpesvirus 1) [µM] | EC50 [3] [µM] | EC50 [4] [µM] | CC50 [5] [µM] | EC50 [6] [µM] | EC50 [7] [µM] | EC50 (Newcastle disease virus) [µM] | EC50 (HepG2 [8]) [µM] | EC90 (HepG2 [9]) [µM] |
| --- | --- | --- | --- | --- | --- | --- | --- | --- | --- | --- | --- |
| O=C(N/C(C(=O)N1CCCCC1)=C(/Br)c1ccccc1F)c1ccc([N+](=O)[O-])cc1 | > 81 | 1.8 | > 81 | > 81 | > 81 | 42 | > 81 | 0.31 | > 81 |  |  |
| O=C(N/C(C(=O)N1CCOCC1)=C(/Cl)c1ccccc1)c1ccccc1 |  |  |  |  |  |  |  |  |  | 7.3 |  |
| O=C(Nc1nccs1)/C(NC(=O)c1ccccc1)=C(\Cl)c1ccccc1 |  |  |  |  |  |  |  |  |  | > 75 |  |
| COc1ccc(C(=O)N/C(C(=O)N2CCCCC2)=C(/Br)c2ccccc2)cc1 | > 81 | 19 | > 81 | > 81 | > 81 | > 67 | > 81 | 1.9 | > 81 |  |  |
| O=C(N/C(C(=O)N1CCCC1)=C(/Cl)c1ccccc1)c1ccccc1 |  |  |  |  |  |  |  |  |  | 5.6 |  |
| Cc1ccccc1/C(Br)=C(\NC(=O)c1ccc([N+](=O)[O-])cc1)C(=O)N1CCCCC1 | > 81 | 4.6 | > 81 | > 81 | > 81 | > 63 | > 81 | 0.6 | > 81 |  |  |
| COc1ccc(/C(Br)=C(\NC(=O)c2ccccc2)C(=O)N2CCCCC2)cc1 | > 81 |  | > 81 | > 81 | > 81 | > 67 | > 81 | 13 | > 81 |  |  |
| COc1ccccc1/C(Br)=C(\NC(=O)c1ccccc1)C(=O)N1CCCCC1 | > 81 |  | > 81 | > 81 | > 81 | > 70 | > 81 | 2.1 | > 81 |  |  |
| O=C(N/C(C(=O)N1CCCCC1)=C(/Br)c1ccc(F)cc1)c1ccccc1 | > 81 |  | > 81 | > 81 | > 81 | > 70 | > 81 | 3.9 | > 81 |  |  |
| O=C(N/C(C(=O)N1CCCCC1)=C(/Br)c1ccccc1)c1ccc([N+](=O)[O-])cc1 | > 81 | 3 | > 81 | > 81 | > 81 | > 65 | > 81 | 0.35 | > 81 |  |  |
| O=C(N/C(C(=O)N1CCCCC1)=C(/Br)c1ccccc1)c1ccc(F)cc1 | > 81 | 4.4 | > 81 | > 81 | > 81 | > 69 | > 81 | 0.86 | > 81 |  |  |
| COc1ccc(/C(Cl)=C(\NC(=O)c2ccccc2)C(=O)N2CCCCC2)cc1 | > 81 |  | > 81 | > 81 | > 81 | > 75 | > 81 | > 75 | > 81 |  |  |
| CCN(CC)C(=O)/C(NC(=O)c1ccccc1)=C(\Cl)c1ccccc1 |  |  |  |  |  |  |  |  |  | > 75 |  |
| O=C(N/C(C(=O)N1CCCCC1)=C(/Br)c1ccc(Cl)cc1)c1ccc([N+](=O)[O-])cc1 | > 81 |  | > 81 | > 81 | > 81 | > 60 | > 81 | 1.6 | > 81 |  |  |
| Cc1ccc(C(=O)N/C(C(=O)N2CCCCC2)=C(/Br)c2ccccc2)cc1 | > 81 | 12 | > 81 | > 81 | > 81 | > 70 | > 81 | 2.1 | > 81 |  |  |
| O=C(N/C(C(=O)N1CCCCC1)=C(/Cl)c1ccc(Cl)cc1)c1ccccc1 | > 81 |  | > 81 | > 81 | > 81 | 45 | > 81 |  | > 81 |  |  |
| Nc1nc(=O)n([C@@H]2CS[C@H](CO)O2)cc1F [EMTRICITABINE] | > 81 |  | > 81 | > 81 | > 81 |  | > 81 |  | > 81 | 0.03 | 0.3 |
| O=C(N/C(C(=O)N1CCCCC1)=C(/Br)c1ccccc1)c1ccc(Cl)cc1 | > 81 | 3.1 | > 81 | > 81 | > 81 | > 67 | > 81 | 0.54 | > 81 |  |  |

| Structure (SMILES) | EC50 [1] [µM] | EC90 [2] [µM] | EC50 (Human alphaherpesvirus 1) [µM] | EC50 [3] [µM] | EC50 [4] [µM] | CC50 [5] [µM] | EC50 [6] [µM] | EC50 [7] [µM] | EC50 (Newcastle disease virus) [µM] | EC50 (HepG2 [8]) [µM] | EC90 (HepG2 [9]) [µM] |
| --- | --- | --- | --- | --- | --- | --- | --- | --- | --- | --- | --- |
| O=C(N/C(C(=O)N1CCCCC1)=C(/Br)c1ccc(F)cc1)c1ccc([N+](=O)[O-])cc1 | > 81 | 11 | > 81 | > 81 | > 81 | > 63 | > 81 | 0.72 | > 81 |  |  |
| O=C(N/C(C(=O)N1CCCCC1)=C(/Br)c1ccccc1)c1ccc(Br)cc1 | > 81 | 3.7 | > 81 | > 81 | > 81 | > 61 | > 81 | 0.53 | > 81 |  |  |
| O=C(N/C(C(=O)N1CCCCC1)=C(/Br)c1ccccc1F)c1ccccc1 | > 81 |  | > 81 | > 81 | > 81 | 70 | > 81 | 1.5 | > 81 |  |  |
| O=C(N/C(C(=O)N1CCCCC1)=C(/Cl)c1ccc(F)cc1)c1ccccc1 | > 81 | 28 | > 81 | > 81 | > 81 | > 75 | > 81 | 3.1 | > 81 |  |  |
| COc1ccc(C(=O)N/C(C(=O)N2CCCCC2)=C(/Cl)c2ccccc2)cc1 | > 81 |  | > 81 | > 81 | > 81 | > 75 | > 81 | 5.2 | > 81 |  |  |
| O=C(N/C(C(=O)N1CCCCC1)=C(/Br)c1ccccc1)c1ccc(C(F)(F)F)cc1 | > 81 | 34 | > 81 | > 81 | > 81 | > 62 | > 81 | 5 | > 81 |  |  |
| COc1ccccc1/C(Br)=C(\NC(=O)c1ccc([N+](=O)[O-])cc1)C(=O)N1CCCCC1 | > 81 | 0.92 | > 81 | > 81 | > 81 | > 61 | > 81 | 0.13 | > 81 |  |  |
| O=C(N/C(C(=O)N1CCCCC1)=C(/Br)c1ccccc1)c1ccccc1 | > 81 | 21 | > 81 | > 81 | > 81 | > 72 | > 81 | 1.3 | > 81 |  |  |
| O=C(N/C(C(=O)N1CCCCCCC1)=C(/Cl)c1ccccc1)c1ccccc1 |  |  |  |  |  |  |  |  |  | > 75 |  |
| O=C(N/C(C(=O)N1CCCCC1)=C(/Cl)c1ccccc1)c1ccccc1 | > 81 | 13 | > 81 | > 81 | > 81 | > 81 | > 81 | 1.2 | > 81 |  |  |
| O=C(N/C(C(=O)N1CCCCC1)=C(/Cl)c1ccccc1F)c1ccccc1 | > 81 |  | > 81 | > 81 | > 81 | 31 | > 81 |  | > 81 |  |  |
| O=C(N/C(C(=O)N1CCCCCC1)=C(/Cl)c1ccccc1)c1ccccc1 |  |  |  |  |  |  |  |  |  | > 75 |  |
| Cc1ccc(/C(Br)=C(\NC(=O)c2ccccc2)C(=O)N2CCCCC2)cc1 | > 81 |  | > 81 | > 81 | > 81 | > 70 | > 81 | 2.8 | > 81 |  |  |
| O=C(NCc1ccccc1)/C(NC(=O)c1ccccc1)=C(\Cl)c1ccccc1 |  |  |  |  |  |  |  |  |  | > 75 |  |
| O=C(N/C(C(=O)N1CCCCC1)=C(/Br)c1ccc(Cl)cc1)c1ccccc1 | > 81 |  | > 81 | > 81 | > 81 | 55 | > 81 | 11 | > 81 |  |  |
| O=C(N/C(C(=O)N1CCCCC1)=C(/Cl)c1ccccc1)c1ccc(C(F)(F)F)cc1 | > 81 |  | > 81 | > 81 | > 81 | > 69 | > 81 | > 69 | > 81 |  |  |
| Cc1ccccc1/C(Br)=C(\NC(=O)c1ccccc1)C(=O)N1CCCCC1 | > 81 |  | > 81 | > 81 | > 81 | > 70 | > 81 | 0.89 | > 81 |  |  |
| O=C(N/C(C(=O)N1CCCCC1)=C(/Cl)c1ccccc1)c1ccc(F)cc1 | > 81 | 5.5 | > 81 | > 81 | > 81 | > 67 | > 81 | 1.3 | > 81 |  |  |

Source: ChEMBL document CHEMBL1132834, “Phenylpropenamide derivatives as inhibitors of hepatitis B virus replication” (Bioorg Med Chem Lett, 2000)
